The text below walks through data of US20070098900A1, “Media providing non-contacting formation of high contrast marks and method of using same, composition for forming a laser-markable coating, a laser-markable material and process of forming a marking” (FUJI HUNT PHOTOGRAPHIC CHEMICALS, INC., priority 2004, published 2007).

This data set can be described thus: Solubility of electron donor dye precursors in ethyl acetate. It is filed as physicochemical. The source says:
For reference, the following Table 1 lists electron donor dye precursor compounds, and includes the corresponding solubility in ethyl acetate, which are used in the following examples.

For `CCN(CC)c1ccc2c(c1)Oc1cc(C)ccc1C21OC(=O)c2ccccc21` [Sample D-2], the “Solubility in ethyl acetate” value was 5 g/100 grams.

On to `CCN(CC)c1ccc2c(c1)Oc1cc(C)c(Nc3ccccc3)cc1C21OC(=O)c2ccccc21` [Sample D-3], for which the “Solubility in ethyl acetate” value is 4 g/100 grams.

For `CCCCCCOc1ccc2c(c1)Oc1cc(OCCCCCC)ccc1C21OC(c2cccs2)=Nc2ccccc21` [Sample D-5], the “Solubility in ethyl acetate” value is 20 g/100 grams.
